Tests used:
[1] = target: T1, recombinant glucosyltransferase domain of C. difficile Toxin B/TcdB (Clostridioides difficile, UniProt P18177); assay: biochemical
T1 construct: 6-His (C); purchased R&D Systems 6246-GT

[2] = target: T2, C. difficile full-length toxin TcdA (Clostridioides difficile, UniProt P16154); assay: cell-based
T2 construct: C. difficile full-length toxins (TcdA or TcdB); purchased Enzo Life Sciences BML-G140-0050

[3] = target: T3, C. difficile full-length toxin TcdB (Clostridioides difficile, UniProt P18177); assay: cell-based
T3 construct: C. difficile full-length toxins (TcdA or TcdB); purchased EMD Millipore 616377

[4] = tested on: C. difficile toxin (TcdA and TcdB, ~1:1); assay: Murine C. difficile toxin model (intrarectal toxin); type: in vivo, C57BL/6 mice
[5] = tested on: C. difficile strain VPI 10463; assay: Acute murine C. difficile infection model; type: in vivo, C57BL/6 mice; conditions: PO; 52 hours after infection
Source text: In a hospital environment, C. difficile infection occurs when the patient receives an antibiotic treatment that disrupts the normal gut microflora and is exposed to C. difficile spores. The patient often fails to mount a protective immune response against the acute C. difficile infection. (Rupnik, Wilcox et al. 2009). To study the acute C. difficile infection, we established a murine C. difficile infection model. Details of the infection model are provided in the “Experimental Protocol” (below).
In brief, female C57BL/6 mice were administered the following antibiotics: colistin (0.042 units/mL), gentamicin (0.035 mg/mL), kanamycin (0.4 mg/mL), metronidazole (0.215 mg/mL) and vancomycin (0.045 mg/mL) in drinking water for 3 days. The administered antibiotics disrupted the normal gut microflora in mice. On the 4th day, mice received oral administration of 0.5 mL volume containing ˜100 spores produced from a virulent clinical C. difficile isolate (strain VPI 10463). In this acute murine C. difficile infection model, we observed a similar time course of infection when compared to that of clinical patients.
Using the developed murine C. difficile infection model (Example 67), we evaluated our test compounds for their efficacy in reducing weight loss and gut inflammation caused by the acute C. difficile infection. We tested the efficacy of Example 6a and Example 5ae and used eight (8) animals in each group.
We further tested the efficacy of the Example 6a, Example 5ae, Example 4cl, and Example 5al compounds by PO administration. Vancomycin was used as a positive control. Three (3) experiments were performed utilizing a total of five (5) to sixteen (16) animals in each group.
C. difficile strain VPI 10463 was grown for four (4) days in 10 ml of BHI in a Bactron anaerobic workstation (Shel Lab). The culture was centrifuged at 2,700 g for 10 minutes. The bacterial pellet was washed with 10 mL of PBS and the centrifugation was repeated. The pellet was then re-suspended in 10 mL of PBS, incubated at 56° C. for 10 minutes, and then was frozen at −20° C. until used. Titers of spore stocks were determined by serial dilution and plating onto BHI and with 1% taurocholate and counting of colonies after incubation for 24 hours at 37° C. using the GasPak EZ Anaerobe Pouch System.
We utilized an established C. difficile murine infection model (Chen, Katchar et al. 2008). To render them susceptible to infection, female C57BL/6 mice (˜10 weeks old and weighing ˜20 g) were administered the following antibiotics (Sigma Aldrich) in drinking water for 3 days (Days −6 to −3): colistin (0.042 units/mL), gentamicin (0.035 mg/mL), kanamycin (0.4 mg/mL), metronidazole (0.215 mg/mL) and vancomycin (0.045 mg/mL). Based upon an expected water consumption of 100 mL/kg/day, the approximate doses of these antibiotics will be as follows: colistin (4.2 units/kg/day), gentamicin (3.5 mg/kg/day), kanamycin (40 mg/kg/day), metronidazole (21.5 mg/kg/day) and vancomycin (4.5 mg/kg/day). The animals were provided with regular drinking water for two days (Day −2 and Day −1), and the next day (Day 0) they were administered clindamycin phosphate (1 mg/mL solution in PBS) at 10 mL/kg by intraperitoneal injection, for a final dose of 10 mg/kg body weight. The following day (Day 1), they were orally gavaged with ˜100 spores in a 0.5 ml volume.
Compounds were administered beginning ˜8 hours after infection, and the animals were dosed twice per day for two days (Days 2-3) with a total of four doses. Compounds were prepared as 5 mg/mL suspensions in 20% PEG-400, 0.4% carboxymethyl cellulose and 0.2% Tween 80 and administered at a dose of 10 mL/kg, for a final dose of 50 mg/kg body weight.
Animals were observed and weighed two (2) to (3) times daily. Animals that were obviously moribund or had lost >20% of their initial body weight were euthanized. Sub-groups of animals were euthanized four (4) hours after the final compound dose (52 hours after infection). […]

[6] = tested on: C. difficile infection (CDI); conditions: patients; Louie et al. 2011; cited from earlier work
C. difficile = type: in vivo, C57/BL6 mice
C. difficile strain 630 = type: in vivo, Golden Syrian hamsters; conditions: PO twice per day; Example 5ae 50 mg/kg 7 days; vancomycin 5 mg/kg 5 days
[7] = murine C. difficile toxin model, PO, 50 mg/kg body weight
[8] = oral (PO), 50 mg/kg, intrarectal toxin 12.5 μg

T2 sequence (P16154 whole entry, looked up): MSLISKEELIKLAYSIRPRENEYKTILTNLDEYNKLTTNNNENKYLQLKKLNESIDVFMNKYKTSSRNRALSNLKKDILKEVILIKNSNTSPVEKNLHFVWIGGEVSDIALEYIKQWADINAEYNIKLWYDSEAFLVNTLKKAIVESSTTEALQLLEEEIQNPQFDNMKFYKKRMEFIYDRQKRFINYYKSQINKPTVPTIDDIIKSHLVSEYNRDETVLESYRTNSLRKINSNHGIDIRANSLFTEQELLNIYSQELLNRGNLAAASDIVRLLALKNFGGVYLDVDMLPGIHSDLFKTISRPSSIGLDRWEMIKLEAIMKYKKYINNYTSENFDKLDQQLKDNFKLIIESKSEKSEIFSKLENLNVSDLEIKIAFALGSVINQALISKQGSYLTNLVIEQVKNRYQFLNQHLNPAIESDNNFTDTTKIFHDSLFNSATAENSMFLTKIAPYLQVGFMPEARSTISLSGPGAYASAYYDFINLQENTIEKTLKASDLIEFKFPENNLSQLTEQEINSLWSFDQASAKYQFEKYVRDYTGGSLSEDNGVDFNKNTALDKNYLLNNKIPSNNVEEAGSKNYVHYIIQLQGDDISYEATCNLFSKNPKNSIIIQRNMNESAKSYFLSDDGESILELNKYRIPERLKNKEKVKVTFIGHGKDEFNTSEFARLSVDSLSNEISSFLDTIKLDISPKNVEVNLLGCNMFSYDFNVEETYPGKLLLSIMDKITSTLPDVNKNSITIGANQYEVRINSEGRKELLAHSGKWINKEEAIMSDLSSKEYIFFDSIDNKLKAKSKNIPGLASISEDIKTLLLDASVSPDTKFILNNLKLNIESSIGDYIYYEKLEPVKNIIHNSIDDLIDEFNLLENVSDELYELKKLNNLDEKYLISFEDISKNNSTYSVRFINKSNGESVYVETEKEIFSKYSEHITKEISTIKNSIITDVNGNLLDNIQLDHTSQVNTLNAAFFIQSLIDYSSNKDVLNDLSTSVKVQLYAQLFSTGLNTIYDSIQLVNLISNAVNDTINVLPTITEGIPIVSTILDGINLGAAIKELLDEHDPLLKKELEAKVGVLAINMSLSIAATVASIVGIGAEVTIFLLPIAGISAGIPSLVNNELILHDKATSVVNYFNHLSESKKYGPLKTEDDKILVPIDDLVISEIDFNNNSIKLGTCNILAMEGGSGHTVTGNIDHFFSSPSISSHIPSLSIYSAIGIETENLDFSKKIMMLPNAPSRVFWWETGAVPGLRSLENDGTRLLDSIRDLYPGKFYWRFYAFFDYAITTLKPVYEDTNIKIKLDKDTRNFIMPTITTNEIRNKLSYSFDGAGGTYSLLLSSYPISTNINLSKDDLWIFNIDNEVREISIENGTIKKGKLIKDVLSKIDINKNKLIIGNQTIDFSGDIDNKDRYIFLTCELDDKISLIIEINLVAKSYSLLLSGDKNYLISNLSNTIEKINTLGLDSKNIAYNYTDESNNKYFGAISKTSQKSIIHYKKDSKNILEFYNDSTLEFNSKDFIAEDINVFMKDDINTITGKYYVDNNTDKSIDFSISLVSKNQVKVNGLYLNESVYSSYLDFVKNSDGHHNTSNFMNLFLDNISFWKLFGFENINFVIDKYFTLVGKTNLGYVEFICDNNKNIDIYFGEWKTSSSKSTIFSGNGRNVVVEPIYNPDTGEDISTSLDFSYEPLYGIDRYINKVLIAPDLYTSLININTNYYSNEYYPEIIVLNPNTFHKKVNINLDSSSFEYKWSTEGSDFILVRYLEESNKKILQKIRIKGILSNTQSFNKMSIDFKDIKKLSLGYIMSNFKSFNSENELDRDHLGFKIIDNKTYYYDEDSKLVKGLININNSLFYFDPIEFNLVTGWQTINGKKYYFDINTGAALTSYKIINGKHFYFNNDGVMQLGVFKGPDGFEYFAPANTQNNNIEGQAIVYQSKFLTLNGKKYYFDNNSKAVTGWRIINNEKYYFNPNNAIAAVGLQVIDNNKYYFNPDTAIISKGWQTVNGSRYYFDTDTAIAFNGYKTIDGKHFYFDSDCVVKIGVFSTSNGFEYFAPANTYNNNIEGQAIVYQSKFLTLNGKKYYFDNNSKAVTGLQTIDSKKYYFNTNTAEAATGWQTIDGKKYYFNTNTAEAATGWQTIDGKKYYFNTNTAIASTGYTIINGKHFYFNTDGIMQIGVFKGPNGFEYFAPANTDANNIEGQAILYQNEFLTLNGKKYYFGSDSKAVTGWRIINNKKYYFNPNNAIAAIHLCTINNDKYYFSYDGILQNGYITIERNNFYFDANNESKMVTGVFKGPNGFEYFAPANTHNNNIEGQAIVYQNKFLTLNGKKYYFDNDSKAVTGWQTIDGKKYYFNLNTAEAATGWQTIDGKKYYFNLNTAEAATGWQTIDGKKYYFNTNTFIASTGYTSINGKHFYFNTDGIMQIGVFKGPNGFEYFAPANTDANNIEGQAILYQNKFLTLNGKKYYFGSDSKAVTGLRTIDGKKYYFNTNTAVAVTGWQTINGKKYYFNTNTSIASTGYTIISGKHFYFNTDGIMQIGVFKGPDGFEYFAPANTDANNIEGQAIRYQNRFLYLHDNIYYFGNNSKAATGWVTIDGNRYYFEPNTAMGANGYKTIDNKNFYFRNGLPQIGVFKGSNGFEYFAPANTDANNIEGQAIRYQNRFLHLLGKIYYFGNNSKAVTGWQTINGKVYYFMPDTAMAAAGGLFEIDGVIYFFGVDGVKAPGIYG
T1 sequence (P18177 1-543): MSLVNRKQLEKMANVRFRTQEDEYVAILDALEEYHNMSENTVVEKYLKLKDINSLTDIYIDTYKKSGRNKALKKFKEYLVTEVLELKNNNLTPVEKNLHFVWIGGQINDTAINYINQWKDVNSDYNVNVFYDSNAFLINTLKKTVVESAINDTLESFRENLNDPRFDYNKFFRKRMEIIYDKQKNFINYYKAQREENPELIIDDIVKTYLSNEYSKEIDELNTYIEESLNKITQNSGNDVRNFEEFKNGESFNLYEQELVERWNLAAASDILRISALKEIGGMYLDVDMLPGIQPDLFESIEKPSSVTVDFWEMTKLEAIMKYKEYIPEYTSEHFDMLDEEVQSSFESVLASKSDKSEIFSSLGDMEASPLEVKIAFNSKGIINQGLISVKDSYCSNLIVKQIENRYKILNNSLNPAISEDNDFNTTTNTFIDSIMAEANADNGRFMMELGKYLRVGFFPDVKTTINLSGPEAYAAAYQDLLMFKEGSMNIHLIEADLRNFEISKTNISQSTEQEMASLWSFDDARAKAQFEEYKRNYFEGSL

Row | Structure (SMILES) | IC50 [1] [nM] | IC50 [2] [nM] | IC50 [3] [nM] | IL-1β (% Inhibition) [4, 7] [%] | MPO (% Inhibition) [4, 7] [%] | IL-1β in colon tissue [4, 8] | MPO in colon tissue [4, 8] | toxin effect on colon length [4, 8] | IL-1β in colon tissues [5] | MPO in colon tissues [5] | toxin effect on colon length [5] | CDI recurrence [6] [%] | weight loss, days 8-9 after infection (C. difficile; relapse model, PO, vancomycin 20 mg/kg once per day for five days) | weight loss during treatment (Days 1-5) (C. difficile; vancomycin 20 mg/kg oral, once per day for five days) | body weight loss (C. difficile strain 630)
1 | Cc1cc(CN2C(=O)c3ccc(Cl)cc3NC(=O)[C@H]2Cc2ccccn2)ccc1C(=O)Nc1ccc(C(F)(F)F)cn1 [Example 5al, (R)-4-((8-Chloro-2,5-dioxo-3-(pyridin-2-ylmethyl)-2,3-dihydro-1H-benzo[e][1,4]diazepin-4(5H)-yl)methyl)-2-methyl-N-(5-(trifluoromethyl)pyridin-2-yl)benzamide] | < 100 | 1000 to 10000 | < 100 | 81 | 91 | reduced the levels of IL-1β | reduced | reduced the C. difficile toxin-mediated effects on colon length | reduced the level of IL-1β | reduced | significantly reduced the toxin effect on colon length |  |  |  | 
2 | CCc1c(Cl)c(O)c(Cl)c(O)c1C(=O)O[C@H]1[C@H](O)[C@H](OC)[C@H](OC/C2=C\C=C\C[C@H](O)/C(C)=C/[C@H](CC)[C@@H](O[C@@H]3OC(C)(C)[C@@H](OC(=O)C(C)C)[C@H](O)[C@@H]3O)/C(C)=C/C(C)=C/C[C@@H]([C@@H](C)O)OC2=O)O[C@@H]1C [fidaxomicin] |  |  |  |  |  |  |  |  |  |  |  | 8 |  |  | 
3 | CN[C@H](CC(C)C)C(=O)N[C@H]1C(=O)N[C@@H](CC(N)=O)C(=O)N[C@H]2C(=O)N[C@H]3C(=O)N[C@H](C(=O)N[C@H](C(=O)O)c4cc(O)cc(O)c4-c4cc3ccc4O)[C@H](O)c3ccc(c(Cl)c3)Oc3cc2cc(c3O[C@@H]2O[C@H](CO)[C@@H](O)[C@H](O)[C@H]2O[C@H]2C[C@](C)(N)[C@H](O)[C@H](C)O2)Oc2ccc(cc2Cl)[C@H]1O [vancomycin, reference compound] |  |  |  |  |  |  |  |  |  |  |  | 25 | significant weight loss | prevented weight loss | prevented any significant weight loss

— patent US10669242B2 (priority 2016, dated 2020)
